Experimental data: patent publication US20250296937A1, “CYCLIC BISBENZYL TETRAHYDROISOQUINOLINE COMPOUND, AND PREPARATION METHOD THEREFOR AND USE THEREOF” (Shanghai Institute of Materia Medica, Chinesse Academy of …, priority 2021, published 2025)
“Also recorded” adds a separate entry of the source.

Columns and labels:
[1] = tested on: delta mutant strain of SARS-CoV-2; format: cell-based; conditions: for EC50: read-out: Inhibition against viral replication of delta mutant strain EC50
[2] = tested on: South African mutant strain of SARS-CoV-2; format: cell-based; conditions: for EC50: read-out: Inhibition against viral replication of South African mutant strain EC50

Row | SMILES | inhibition against the delta strain [1] | EC50 [1] | inhibition against the South African strain [2] | EC50 [2]
1 | CCCCNC(=O)Oc1ccc2cc1Oc1ccc(cc1)C[C@H]1c3c(cc(OC)c(OC)c3Oc3cc4c(cc3OC)CCN(C)[C@@H]4C2)CCN1C [Compound 2] | strong inhibition; also recorded: significantly inhibited | 0.3 µM | – | –
2 | COc1cc2c3cc1Oc1c(OC)c(OC)cc4c1[C@H](Cc1ccc(cc1)Oc1cc(ccc1C(N)=O)C[C@H]3N(C)CC2)N(C)CC4 [Compound 4] | strong inhibition; also recorded: significantly inhibited | 1.5 µM | – | –
3 | CNC(=O)c1ccc2cc1Oc1ccc(cc1)C[C@H]1c3c(cc(OC)c(OC)c3Oc3cc4c(cc3OC)CCN(C)[C@@H]4C2)CCN1C [Compound 5] | – | – | strong inhibition; also recorded: significantly inhibited | 2.7 µM
4 | COc1cc2c3cc1Oc1c(OC)c(OC)cc4c1[C@H](Cc1ccc(cc1)Oc1cc(ccc1C(=O)NC1CC1)C[C@H]3N(C)CC2)N(C)CC4 [Compound 6] | – | – | strong inhibition; also recorded: significantly inhibited | 2.2 µM
